Measurements: patent US20110301143A1, “HETEROCYCLIC DERIVATIVES AS INHIBITORS OF STEAROYL-COENZYME A DELTA-9 DESATURASE” (priority 2009, published 2011)

Target: T1, human SCD1 (hSCD-1) (Homo sapiens, UniProt O00767)
T1 construct: made in house; host or cells: baculovirus/Sf9 insect cells
T1 sequence (O00767 1-359): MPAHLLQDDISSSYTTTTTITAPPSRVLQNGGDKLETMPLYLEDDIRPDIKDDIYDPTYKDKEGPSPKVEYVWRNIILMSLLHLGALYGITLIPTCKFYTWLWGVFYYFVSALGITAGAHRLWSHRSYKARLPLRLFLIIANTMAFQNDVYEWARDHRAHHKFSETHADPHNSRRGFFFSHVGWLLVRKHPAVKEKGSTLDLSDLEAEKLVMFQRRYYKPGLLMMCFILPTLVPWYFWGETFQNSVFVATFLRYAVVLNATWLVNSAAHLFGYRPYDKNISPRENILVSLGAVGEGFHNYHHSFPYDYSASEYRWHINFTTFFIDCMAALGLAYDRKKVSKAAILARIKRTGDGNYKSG
Test: SCD enzyme activity assay, reconstituted human SCD1 (conversion of radiolabeled stearoyl-CoA to oleoyl-CoA)
Assay type: biochemical
Conditions: human SCD-1
Method: The potency of compounds of formula I against the stearoyl-CoA desaturase was determined by measuring the conversion of radiolabeled stearoyl-CoA to oleoyl-CoA using rat liver microsome or human SCD1 (hSCD-1) following previously published procedures with some modifications (Joshi, et al., J. Lipid Res., 18: 32-36 (1977); Talamo, et al., Anal. Biochem, 29: 300-304 (1969)). Liver microsome was prepared from male Wistar or Sprague Dawley rats on a high carbohydrate diet for 3 days (LabDiet # 5803, Purina). The livers were homogenized (1:10 w/v) in a buffer containing 250 mM sucrose, 1 mM EDTA, 5 mM DTT and 50 mM Tris-HCl (pH 7.5). After a 100,000×g centrifugation for 60 min, the liver microsome pellet was suspended in a buffer containing 100 mM sodium phosphate, 20% glycerol, 2 mM DTT, and stored at −78° C. Human SCD1 desaturase system was reconstituted using human SCD1 from a baculovirus/Sf9 expression system, cytochrome B5 and cytochrome B5 reductase. Typically, test compound in 2 μL DMSO was incubated for 15 min at room temperature with 180 μL of the SCD enzyme in a buffer containing 100 mM Tris-HCl (pH 7.5), ATP (5 mM), Coenzyme-A (0.1 mM), Triton X-100 (0.5 mM) and NADH (2 mM). The reaction was initiated by the addition of 20 μL of [^3H]-stearoyl-CoA (final concentration=2 μM, radioactivity concentration=1 μCi/mL). After 10 min, the reaction mixture (80 μL) was mixed with a calcium chloride/charcoal aqueous suspension (100 μl, charcoal (10% w/v) plus 25 μL CaCl2 (2N). After centrifugation to precipitate the radioactive fatty acid species, tritiated water released from 9,10-[^3H]-stearoyl-CoA by the SCD enzyme was quantified on a scintillation counter.

| SMILES | IC50 [nM] |
| --- | --- |
| O=C(O)Cn1nnc(-c2cc(N3CCN(C(=O)c4cccc(OC(F)(F)F)c4)CC3)no2)n1 | < 20 |
| O=C(O)Cn1nnc(-c2cnc(N3CCC(C(=O)c4ccccc4C(F)(F)F)CC3)s2)n1 | < 20 |
| O=C(O)Cn1nnc(-c2cnc(N3CCN(c4cccc(OC(F)(F)F)c4)CC3)s2)n1 | < 20 |
| O=C(O)Cn1nnc(-c2cc(N3CCN(C(=O)c4cc(C(F)(F)F)ccc4Cl)CC3)no2)n1 | 24 |
| O=C(O)Cn1nnc(-c2cc(N3CCN(c4cccc(C(F)(F)F)c4)CC3)no2)n1 | 83 |
| O=C(O)Cn1nnc(-c2cc(N3CCN(c4cc(F)ccc4Cl)CC3)no2)n1 | 35 |
| O=C(O)Cn1nnc(-c2cnc(N3CCCN(c4ccccc4C(F)(F)F)CC3)s2)n1 | 30 |
| O=C(O)Cn1nnc(-c2cnc(N3CCCN(c4cc(F)ccc4Cl)CC3)s2)n1 | 29 |
| O=C(O)Cn1nnc(-c2cc(N3CCC(C(=O)c4ccccc4C(F)(F)F)CC3)no2)n1 | < 20 |
| O=C(O)Cn1nnc(-c2cnc(N3CC=C(c4ccccc4C(F)(F)F)CC3)s2)n1 | < 20 |
| O=C(O)Cn1nnc(-c2cnc(N3CCC(c4cccc(C(F)(F)F)c4)CC3)s2)n1 | < 20 |
| O=C(O)Cn1nnc(-c2cnc(N3CCN(c4cc(C(F)(F)F)cc(C(F)(F)F)c4)CC3)nc2)n1 | 44 |
| O=C(O)Cn1nnc(-c2cnc(N3CCN(c4ccccc4C(F)(F)F)CC3)s2)n1 | < 20 |
| O=C(O)Cn1nnc(-c2cnc(N3CCN(c4cc(F)ccc4Cl)CC3)s2)n1 | < 20 |
| O=C(O)Cn1nnc(-c2cnc(N3CCN(c4cc(C(F)(F)F)ccc4Cl)CC3)s2)n1 | < 20 |
| O=C(O)Cn1nnc(-c2cnc(N3CCN(c4cc(Cl)ccc4F)CC3)s2)n1 | < 20 |
| O=C(O)Cn1nnc(-c2cnc(N3C[C@@H]4C[C@H]3CN4c3cc(F)ccc3Cl)s2)n1 | < 20 |
| O=C(O)Cn1nnc(-c2cnc(N3C[C@@H]4C[C@H]3CN4c3cccc(Cl)c3)s2)n1 | < 20 |
| CCC(C)c1ccccc1C(=O)C1CCN(c2cc(-c3nnn(CC(=O)O)n3)on2)CC1 (stereo not shown) | < 20 |

| SMILES | IC50 [nM] |
| --- | --- |
| CC1(c2ccccc2C(=O)C2CCN(c3cc(-c4nnn(CC(=O)O)n4)on3)CC2)CC1 | < 20 |
| CC(C)(F)c1ccccc1C(=O)C1CCN(c2cc(-c3nnn(CC(=O)O)n3)on2)CC1 | < 20 |
| O=C(O)Cn1nnc(-c2cc(N3CCC(C(=O)c4cc(C(F)(F)F)ccc4C(F)(F)F)CC3)no2)n1 | < 20 |
| O=C(O)Cn1nnc(-c2cc(N3CCC(C(=O)c4ccccc4OC(F)(F)F)CC3)no2)n1 | 66 |
| O=C(O)Cn1nnc(-c2cnc(N3CCC(C(=O)c4cc(Cl)ccc4Cl)CC3)nc2)n1 | 58 |
| O=C(O)Cn1nnc(-c2cnc(N3CCC(C(=O)c4cc(F)ccc4Cl)CC3)nc2)n1 | 46 |
| O=C(O)Cn1nnc(-c2cnc(N3CCC(C(=O)c4cc(OC(F)(F)F)ccc4Cl)CC3)nc2)n1 | < 20 |
| O=C(O)Cn1nnc(-c2cnc(N3CCC(C(=O)c4cc(F)ccc4C(F)(F)F)CC3)nc2)n1 | 27 |
| O=C(O)Cn1nnc(-c2cc(N3CCC(C(=O)c4cc(Br)ccc4Br)CC3)no2)n1 | < 20 |
| COc1ccc(OC(F)(F)F)cc1C(=O)C1CCN(c2cc(-c3nnn(CC(=O)O)n3)on2)CC1 | 85 |
| Cc1ccc(Cl)cc1C(=O)C1CCN(c2cc(-c3nnn(CC(=O)O)n3)on2)CC1 | 28 |
| CCCc1ccc(Cl)cc1C(=O)C1CCN(c2cc(-c3nnn(CC(=O)O)n3)on2)CC1 | 23 |
| CCc1ccc(Cl)cc1C(=O)C1CCN(c2cc(-c3nnn(CC(=O)O)n3)on2)CC1 | < 20 |
| O=C(O)Cn1nnc(-c2cc(N3CCC(C(=O)c4cc(Cl)ccc4Br)CC3)no2)n1 | < 20 |
| COc1ccc(Cl)c(C(=O)C2CCN(c3cc(-c4nnn(CC(=O)O)n4)on3)CC2)c1 | 95 |
| Cc1ccc(Cl)c(C(=O)C2CCN(c3cc(-c4nnn(CC(=O)O)n4)on3)CC2)c1 | 79 |
| O=C(O)Cn1nnc(-c2cc(N3CCC(C(=O)c4ccccc4Br)CC3)no2)n1 | 28 |
| O=C(O)Cn1nnc(-c2cc(N3CCC(C(=O)c4cc(Cl)ccc4Cl)CC3)no2)n1 | 31 |

Next, values leading:

| IC50 [nM] | SMILES |
| --- | --- |
| < 20 | CCc1ccc(F)cc1C(=O)C1CCN(c2cc(-c3nnn(CC(=O)O)n3)on2)CC1 |
| < 20 | O=C(O)Cn1nnc(-c2cc(N3CCC(C(=O)c4cc(F)ccc4Cl)CC3)no2)n1 |
| < 20 | O=C(O)Cn1nnc(-c2cc(N3CCC(C(=O)c4cc(F)ccc4C(F)(F)F)CC3)no2)n1 |
| 22 | O=C(O)Cn1nnc(-c2cc(N3CCC(C(=O)c4cc(C(F)(F)F)ccc4Cl)CC3)no2)n1 |
| 50 | O=C(O)Cn1nnc(-c2cc(N3CCC(C(=O)c4ccc(F)cc4Cl)CC3)no2)n1 |
| < 20 | O=C(O)Cn1nnc(-c2cc(N3CCC(C(=O)c4cc(Cl)ccc4C(F)F)CC3)no2)n1 |
| < 20 | CC1(c2ccc(F)cc2C(=O)C2CCN(c3cc(-c4nnn(CC(=O)O)n4)on3)CC2)CC1 |
| 48 | Cc1ccc(C(F)(F)F)cc1C(=O)C1CCN(c2cc(-c3nnn(CC(=O)O)n3)on2)CC1 |
| < 20 | O=C(O)Cn1nnc(-c2cc(N3CCC(C(=O)c4cc(F)ccc4C(F)F)CC3)no2)n1 |
| 20 | Cc1ccc(F)cc1C(=O)C1CCN(c2cc(-c3nnn(CC(=O)O)n3)on2)CC1 |
| < 20 | O=C(O)Cn1nnc(-c2cc(N3CCC(C(=O)c4cc(F)ccc4CC4CC4)CC3)no2)n1 |
| < 20 | O=C(O)Cn1nnc(-c2cc(N3CCC(C(=O)c4cc(F)ccc4C4CCC4)CC3)no2)n1 |
| < 20 | O=C(O)Cn1nnc(-c2cc(N3CCC(C(=O)c4cc(F)ccc4C4CC4)CC3)no2)n1 |
| < 20 | O=C(O)Cn1nnc(-c2cc(N3CCC(C(=O)c4cc(F)ccc4Br)CC3)no2)n1 |
| 40 | O=C(O)Cn1nnc(-c2cc(N3CCC(C(=O)c4ccccc4OC(F)F)CC3)no2)n1 |
| 32 | O=C(O)Cn1nnc(-c2cc(N3CCC(C(=O)c4cc(Cl)ccc4C(F)(F)F)CC3)no2)n1 |
| < 20 | CCC(C)c1ccc(F)cc1C(=O)C1CCN(c2cc(-c3nnn(CC(=O)O)n3)on2)CC1 (stereo not shown) [drawing 70] |
| < 20 | CCC(C)c1ccc(F)cc1C(=O)C1CCN(c2cc(-c3nnn(CC(=O)O)n3)on2)CC1 (stereo not shown) [drawing 71] |
